# Measured values as given in patent US20230285310A1, “COMPOSITIONS FOR THE DELIVERY OF PAYLOAD MOLECULES TO AIRWAY EPITHELIUM” (ModernaTX, Inc., priority 2020, published 2023).
# Where a name gives a salt, the structure may show the parent alone.
# Tested on: HeLa cells
# Test: Protein expression assay in HeLa cells (One-Glo luciferase, NPI-Luc mRNA)
# Assay type: cell-based, human
# Conditions: 5 h, no serum, 4 wells, sterol amine post-added to LNP core Compound 18, DSPC, Cholesterol plus DMG-PEG 2K (SA3, SA11, SA24, SA26, SA39, SA32), plus Compound 428 (SA4, SA6, SA10, SA16), or plus β-sitosterol and DMG-PEG 2K (SA23, SA29, SA30, SA31)
# Protocol: To evaluate protein expression In Vitro, HeLa cells from ATCC.org (ATCC CCL-2) are used. The cells are cultured in complete Minimum Essential Medium (MEM) and are plated in 96 well Cell Carrier Ultra plate with PDL coated surface (PerkinElmer) prior to running an experiment.
# LNPs encapsulating NPI-Luc mRNA were dosed with MEM media in the absence of serum. LNP transfected cell were incubated for 5 h post LNP transfection, the cells were imaged live using Opera Phoenix spinning disk confocal microscope (PerkinElmer). Cells were detected using DAPI (405 nm channel), and image analysis was performed in Harmony 4.9, to quantify the number of cells. After imaging the cells were processed with One-Glo Luciferase assay (Promega) to quantify protein expression. Results were reported in relative luminescence units (RLU) normalized to cells counts.
# LNPs were prepared according to Example 2 using NPI-Luc as the mRNA construct. NPI-Luc is a dual read reporter made by adding a 5xV5 tag and a C-myc nuclear localization sequence at the N-terminus of Firefly Luciferase to enhance the signal to noise ratio. Protein expression can be detected using OneGLo assays with luminescence readout or by immunofluorescence with anti-V5 antibodies. Protein expression was evaluated according to the procedure outlined in Example 7. The LNPs are dosed in 4 wells and the average response was reported. For the HeLa assay the luminescence read (RLU) were normalized to cell counts.
row,SMILES,Average protein expression per cell (RLU per cell)
1,"CC(C)CCC[C@@H](C)[C@H]1CC[C@H]2[C@@H]3CC=C4C[C@@H](OC(=O)NCCN(C)CCO)CC[C@]4(C)[C@H]3CC[C@]12C [SA6, (3S,8S,9S,10R,13R,14S,17R)-10,13-dimethyl-17-((R)-6-methylheptan-2-yl)-2,3,4,7,8,9,10,11,12,13,14,15,16,17-tetradecahydro-1H-cyclopenta[a]phenanthren-3-yl (2-((2-hydroxyethyl)(methyl)amino)ethyl)carbamate]",196.2
2,"CC[C@H](CC[C@@H](C)[C@H]1CC[C@H]2[C@@H]3CC=C4C[C@@H](OC(=O)NCCN(C)C)CC[C@]4(C)[C@H]3CC[C@]12C)C(C)C [SA10, (3S,8S,9S,10R,13R,14S,17R)-17-((2R,5R)-5-Ethyl-6-methylheptan-2-yl)-10,13-dimethyl-2,3,4,7,8,9,10,11,12,13,14,15,16,17-tetradecahydro-1H-cyclopenta[a]phenanthren-3-yl (2-(dimethylamino)ethyl)carbamate]",236.6
3,"CC(C)CCC[C@@H](C)[C@H]1CC[C@H]2[C@@H]3CC=C4C[C@@H](OC(=O)CCc5cnc[nH]5)CC[C@]4(C)[C@H]3CC[C@]12C [SA11, (3S,8S,9S,10R,13R,14S,17R)-10,13-dimethyl-17-((R)-6-methylheptan-2-yl)-2,3,4,7,8,9,10,11,12,13,14,15,16,17-tetradecahydro-1H-cyclopenta[a]phenanthren-3-yl 3-(1H-imidazol-5-yl)propanoate, hydrochloride salt]",5.3
4,"CC(C)CCC[C@@H](C)[C@H]1CC[C@H]2[C@@H]3CC=C4C[C@@H](OC(=O)CCC(=O)N(CCCN(C)C)CCCN(C)C)CC[C@]4(C)[C@H]3CC[C@]12C [SA24, (3S,8S,9S,10R,13R,14S,17R)-10,13-Dimethyl-17-((R)-6-methylheptan-2-yl)-2,3,4,7,8,9,10,11,12,13,14,15,16,17-tetradecahydro-1H-cyclopenta[a]phenanthren-3-yl 4-(bis(3-(dimethylamino)propyl)amino)-4-oxobutanoate dihydrochloride]",457.2
5,"CC(C)CCC[C@@H](C)[C@H]1CC[C@H]2[C@@H]3CC=C4C[C@@H](OC(=O)NCCNc5c(NCCCN(C)C)c(=O)c5=O)CC[C@]4(C)[C@H]3CC[C@]12C [SA26, (3S,8S,9S,10R,13R,14S,17R)-10,13-dimethyl-17-((R)-6-methylheptan-2-yl)-2,3,4,7,8,9,10,11,12,13,14,15,16,17-tetradecahydro-1H-cyclopenta[a]phenanthren-3-yl (2-((2-((3-(dimethylamino)propyl)amino)-3,4-dioxocyclobut-1-en-1-yl)amino)ethyl)carbamate, hydrochloride salt]",84.3
6,"CC(C)CCC[C@@H](C)[C@H]1CC[C@H]2[C@@H]3CC=C4C[C@@H](OC(=O)N(CCCN)CCCCN)CC[C@]4(C)[C@H]3CC[C@]12C [SA29, (3S,8S,9S,10R,13R,14S,17R)-10,13-Dimethyl-17-((R)-6-methylheptan-2-yl)-2,3,4,7,8,9,10,11,12,13,14,15,16,17-tetradecahydro-1H-cyclopenta[a]phenanthren-3-yl (4-aminobutyl)(3-aminopropyl)carbamate dihydrochloride]",550.3
7,"CC(C)CCC[C@@H](C)[C@H]1CC[C@H]2[C@@H]3CC=C4C[C@@H](OC(=O)NCCCNCCCCN)CC[C@]4(C)[C@H]3CC[C@]12C [SA30, (3S,8S,9S,10R,13R,14S,17R)-10,13-Dimethyl-17-((R)-6-methylheptan-2-yl)-2,3,4,7,8,9,10,11,12,13,14,15,16,17-tetradecahydro-1H-cyclopenta[a]phenanthren-3-yl (3-((4-aminobutyl)amino)propyl)carbamate dihydrochloride]",648.3
